Assay results taken from ChEMBL document CHEMBL1201862, “PubChem BioAssay data set” (2004).
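All cell lines were grown in 96-well plates and treated with compound for 48 hours. GI50 is the concentration that inhibits growth by half.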 Activity calls are given as the source filed them. No stated cut-off is given here; in the data, active = GI50 up to about 1.1 µM and inactive = higher.

Assays:
Assay in all cases: NCI anticancer screen, dose series, 48 h
A498 = system: A498
NCI-H226 = system: NCI-H226
COLO 205 = system: COLO 205
SR = system: SR
786-0 = system: 786-0
SK-MEL-28 = system: SK-MEL-28
OVCAR-3 = system: OVCAR-3
LOX IMVI = system: LOX IMVI
SNB-78 = system: SNB-78
TK-10 = system: TK-10
DLD-1 = system: DLD-1
M14 = system: M14
RXF 393 = system: RXF 393
RPMI-8226 = system: RPMI-8226
SK-OV-3 = system: SK-OV-3
HCT-15 = system: HCT-15
SF-295 = system: SF-295
HL-60 = system: HL-60
HOP-18 = system: HOP-18
SK-MEL-5 = system: SK-MEL-5
SN12C = system: SN12C
U-251 = system: U-251
SK-MEL-2 = system: SK-MEL-2
HOP-62 = system: HOP-62
IGROV-1 = system: IGROV-1
OVCAR-4 = system: OVCAR-4
CCRF-CEM = system: CCRF-CEM
NCI-H23 = system: NCI-H23
UACC-257 = system: UACC-257
LXFL 529 = system: LXFL 529
MOLT-4 = system: MOLT-4
SW-620 = system: SW-620
SNB-75 = system: SNB-75
ACHN = system: ACHN
XF498 = system: XF498
Malme-3M = system: Malme-3M
KM-20L2 = system: KM-20L2
CAKI-1 = system: CAKI-1
K562 = system: K562
UO-31 = system: UO-31
KM12 = system: KM12
UACC-62 = system: UACC-62
HCC 2998 = system: HCC 2998
A549 = system: A549
SF-268 = system: SF-268
NCI-H460 = system: NCI-H460
EKVX = system: EKVX
DMS-273 = system: DMS-273
NCI-H522 = system: NCI-H522
HT-29 = system: HT-29
SF-539 = system: SF-539
M19-MEL = system: M19-MEL
HCT-116 = system: HCT-116
OVCAR-8 = system: OVCAR-8
OVCAR-5 = system: OVCAR-5
SNB-19 = system: SNB-19
HOP-92 = system: HOP-92

Structure (SMILES): CN1C(c2ccccc2)CC(=O)C(N)C1c1ccccc1 (configuration not stated)
- GI50 (A498): > 67.6 µM (inactive)
- GI50 (NCI-H226): 39.4 µM (inactive)
- GI50 (COLO 205): 18.5 µM (inactive)
- GI50 (SR): 25 µM (inactive)
- GI50 (786-0): 31.3 µM (inactive)
- GI50 (SK-MEL-28): 18.6 µM (inactive)
- GI50 (OVCAR-3): 33.7 µM (inactive)
- GI50 (LOX IMVI): 18 µM (inactive)
- GI50 (SNB-78): 23.7 µM (inactive)
- GI50 (TK-10): 43.7 µM (inactive)
- GI50 (DLD-1): 30.2 µM (inactive)
- GI50 (M14): 26.6 µM (inactive)
- GI50 (RXF 393): 24.4 µM (inactive)
- GI50 (RPMI-8226): 17.3 µM (inactive)
- GI50 (SK-OV-3): > 58.6 µM (inactive)
- GI50 (HCT-15): 26.1 µM
- GI50 (SF-295): 48.9 µM (inactive)
- GI50 (HL-60): 20.6 µM (inactive)
- GI50 (HOP-18): 37.4 µM (inactive)
- GI50 (SK-MEL-5): 18.8 µM (inactive)
- GI50 (SN12C): 34.7 µM (inactive)
- GI50 (U-251): 21.4 µM (inactive)
- GI50 (SK-MEL-2): 19.4 µM (inactive)
- GI50 (HOP-62): > 92.5 µM (inactive)
- GI50 (IGROV-1): 43.5 µM (inactive)
- GI50 (OVCAR-4): 49.4 µM (inactive)
- GI50 (CCRF-CEM): 25.2 µM (inactive)
- GI50 (NCI-H23): 42.5 µM (inactive)
- GI50 (UACC-257): 30.3 µM (inactive)
- GI50 (LXFL 529): 17.6 µM (inactive)
- GI50 (MOLT-4): 20.1 µM (inactive)
- GI50 (SW-620): 19.9 µM (inactive)
- GI50 (SNB-75): 63.5 µM (inactive)
- GI50 (ACHN): 35.9 µM (inactive)
- GI50 (XF498): 14.7 µM (inactive)
- GI50 (Malme-3M): 22.1 µM (inactive)
- GI50 (KM-20L2): 34.8 µM (inactive)
- GI50 (CAKI-1): 28.3 µM (inactive)
- GI50 (K562): 30.6 µM (inactive)
- GI50 (UO-31): 25.5 µM (inactive)
- GI50 (KM12): 23.9 µM (inactive)
- GI50 (UACC-62): 27.2 µM (inactive)
- GI50 (HCC 2998): 20.8 µM (inactive)
- GI50 (A549): 38.7 µM (inactive)
- GI50 (SF-268): 38.2 µM (inactive)
- GI50 (NCI-H460): 22.2 µM (inactive)
- GI50 (EKVX): > 53 µM (inactive)
- GI50 (DMS-273): 23.4 µM (inactive)
- GI50 (NCI-H522): 17 µM (inactive)
- GI50 (HT-29): 23.9 µM (inactive)
- GI50 (SF-539): 42.1 µM (inactive)
- GI50 (M19-MEL): 22.7 µM (inactive)
- GI50 (HCT-116): 18 µM (inactive)
- GI50 (OVCAR-8): 26.8 µM (inactive)
- GI50 (OVCAR-5): 35.4 µM (inactive)
- GI50 (SNB-19): 56.9 µM (inactive)
- GI50 (HOP-92): 25.8 µM (inactive)
